Assay results from article PMC9500072, “Topical application of an irreversible small molecule inhibitor of lysyl oxidases ameliorates skin scarring and fibrosis” (Nature Communications, 2022).

Columns and labels:
primary scar fibroblasts = experiment: Scar-in-a-jar collagen I immunofluorescence (deposition, coherency); type: cell-based, human
Method: Fibrillar collagen I deposition was measured using confocal image analysis (Fig. 4f–k). […] Furthermore, coherency analysis[18] was used to determine collagen alignment. This analysis specifically analyses the alignment of collagen fibers, with more alignment increasing the score and more random distribution provided a lower score. In scar tissue scores are higher as fibers are densely parallel aligned in contrast to normal skin[18].
An experimental ‘Scar-in-a-jar’ protocol developed by Chen and Raghunath[36] was followed for quantitation of collagen per cell and to measure the orientation of collagen under fibrotic conditions in vitro. […] The images then further analyzed for collagen coherency measurements using ‘Fiji is just image j’s’ (FIJI) orientation J application as previously reported[18],[37]. For quantitation of collagen per cell, an image of whole chamber slide was captured using fluorescence microscope (Nikon inverted microscope). The 488 nm green and Hoechst stained blue images were collected, and analyzed using NIS-Elements software (Nikon, Japan). The six ROIs were selected from each image and the binary thresholds were recorded for each corresponding image. […]

[1] = target: Nicotinic Acetylcholine α1β2, Cytisine (Homo sapiens, UniProt P17787+P43681); experiment: Eurofins panel 299031; type: binding
Nicotinic Acetylcholine α1β2, Cytisine, sequence (P43681 27-627): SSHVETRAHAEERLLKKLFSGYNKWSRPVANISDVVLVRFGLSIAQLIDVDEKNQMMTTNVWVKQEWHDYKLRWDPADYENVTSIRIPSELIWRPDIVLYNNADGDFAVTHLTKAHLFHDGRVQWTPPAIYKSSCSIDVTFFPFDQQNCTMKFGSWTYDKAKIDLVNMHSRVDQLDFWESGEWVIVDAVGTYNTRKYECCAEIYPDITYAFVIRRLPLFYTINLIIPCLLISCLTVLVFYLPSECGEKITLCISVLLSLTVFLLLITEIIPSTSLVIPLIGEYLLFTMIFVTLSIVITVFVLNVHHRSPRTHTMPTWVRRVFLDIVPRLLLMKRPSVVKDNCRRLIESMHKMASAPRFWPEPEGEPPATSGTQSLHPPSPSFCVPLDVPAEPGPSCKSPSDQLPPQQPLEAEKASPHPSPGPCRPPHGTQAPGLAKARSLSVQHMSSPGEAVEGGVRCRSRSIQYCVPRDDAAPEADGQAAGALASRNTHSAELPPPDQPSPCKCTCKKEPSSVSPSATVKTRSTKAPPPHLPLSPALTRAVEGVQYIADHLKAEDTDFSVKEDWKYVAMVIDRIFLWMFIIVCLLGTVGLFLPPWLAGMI
Nicotinic Acetylcholine α1β2, Cytisine, sequence (P17787 26-502): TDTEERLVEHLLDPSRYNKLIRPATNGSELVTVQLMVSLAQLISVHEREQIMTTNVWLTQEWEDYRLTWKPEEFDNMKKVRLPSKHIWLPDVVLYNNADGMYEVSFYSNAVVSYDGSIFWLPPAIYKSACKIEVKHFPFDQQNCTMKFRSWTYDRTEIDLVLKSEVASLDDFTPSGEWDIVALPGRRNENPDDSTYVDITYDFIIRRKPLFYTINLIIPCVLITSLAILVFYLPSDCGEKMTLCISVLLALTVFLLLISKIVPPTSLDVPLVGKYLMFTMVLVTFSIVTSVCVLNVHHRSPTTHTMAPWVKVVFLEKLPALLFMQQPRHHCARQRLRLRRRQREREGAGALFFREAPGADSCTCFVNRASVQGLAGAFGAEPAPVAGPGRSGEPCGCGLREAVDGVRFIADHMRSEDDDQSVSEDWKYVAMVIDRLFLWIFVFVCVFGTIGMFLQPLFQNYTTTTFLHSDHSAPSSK

| Structure (SMILES) | deposited fibrillar collagen I (primary scar fibroblasts; 10 µM vs control and 1 µM) | collagen I coherency (primary scar fibroblasts; 1 and 10 µM vs control) | inhibition at 30 µM [1] [%] |
| --- | --- | --- | --- |
| NC/C=C(\F)CS(=O)(=O)c1ccccc1 [PXS-4787] | significantly reduced | significantly reduced coherency |  |
| NC/C=C(\F)C(F)(F)S(=O)(=O)c1ccccc1 [PXS-6302] |  |  | -2 |
